# Source: ChEMBL document CHEMBL1201862, “PubChem BioAssay data set” (2004)
# Activity calls are given as the source filed them.
# Experiments:
# Kallikrein-7 = Kallikrein-7 (Homo sapiens, UniProt P49862); assay: Fluorescence Intensity-based biochemical primary high throughput dose response assay to identify activators of kallikrein-7 (K7) zymogen.
# [1] = reduction of Shn3 3'UTR-driven luciferase in osteoblasts – cell-based, Clone20 osteoblasts, firefly luciferase, cherry-picked, dose response (AID 624132); type: functional;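 further: firefly luciferase luminescence from reporter carrying the Shn3 3'UTR in osteoblasts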
# [2] = loss of viability in HepG2 cells – cell-based, CellTiter-Glo, cherry-picked, cytotoxicity control for Shn3 inhibitor project, dose response (AID 624134); type: functional
# [3] = non-specific 3'UTR reporter inhibition in Clone20-Shn3RL – cell-based, Renilla luciferase, cherry-picked, counter-screen for Shn3 inhibitor project, dose response (AID 624133); type: functional
# Galanin receptor type 3 = biological target: T1, Galanin receptor type 3 (Homo sapiens, UniProt O60755); assay: Fluorescence-based cell-based primary high throughput dose response assay to identify antagonists of the Galanin Receptor 3 (GalR3).; type: functional
# T1 sequence (O60755 whole entry): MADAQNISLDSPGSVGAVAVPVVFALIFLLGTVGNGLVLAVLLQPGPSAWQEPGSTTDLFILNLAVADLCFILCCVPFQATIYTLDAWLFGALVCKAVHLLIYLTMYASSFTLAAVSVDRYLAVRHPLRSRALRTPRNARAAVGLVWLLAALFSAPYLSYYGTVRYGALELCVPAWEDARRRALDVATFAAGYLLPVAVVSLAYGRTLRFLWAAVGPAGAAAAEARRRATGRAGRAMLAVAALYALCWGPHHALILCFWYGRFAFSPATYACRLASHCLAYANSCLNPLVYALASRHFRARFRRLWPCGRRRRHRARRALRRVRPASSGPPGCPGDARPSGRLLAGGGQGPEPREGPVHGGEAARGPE
# cells [4] = type: functional, cell-based; conditions: HEK-CNG
# [5] = biological target: COUP transcription factor 2 (Homo sapiens, UniProt P24468); assay: Luminescence-based cell-based high throughput dose response assay to identify inhibitors of COUP-TFII (NR2F2).; type: functional;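 further: HEK293 cells transiently cotransfected with COUP-TFII expression vector and reporter; luciferase reporter luminescence driven by COUP-TFII from the pX2-168 reporter plasmid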
# Chain of COUP transcription factor 2 (P24468 whole entry): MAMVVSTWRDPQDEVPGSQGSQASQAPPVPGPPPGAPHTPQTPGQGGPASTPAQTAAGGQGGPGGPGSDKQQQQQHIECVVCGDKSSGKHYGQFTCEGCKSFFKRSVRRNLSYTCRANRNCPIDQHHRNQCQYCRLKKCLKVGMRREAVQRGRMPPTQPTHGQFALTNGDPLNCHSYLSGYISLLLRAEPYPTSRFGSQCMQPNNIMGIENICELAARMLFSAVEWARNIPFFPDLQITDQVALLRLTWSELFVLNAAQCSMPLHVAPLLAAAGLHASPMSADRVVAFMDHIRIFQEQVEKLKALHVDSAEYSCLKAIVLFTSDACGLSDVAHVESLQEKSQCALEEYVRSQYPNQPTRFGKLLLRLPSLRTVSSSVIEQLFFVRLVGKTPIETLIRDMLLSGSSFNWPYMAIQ
# cells [6] = assay: cells
# [7] = HGIII-sPLA2 enzyme inhibition potency – biochemical, QFRET, IC50, dose response (AID 743457);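 further: green fluorescence rise as the enzyme cleaves BODIPY PC-A2 in liposomes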
# [8] = CellTiter-Glo luminescence survival assay, SW480 colon tumor line, concentration-response curve, half-maximal inhibitory concentration (AID 1117338); type: functional
# [9] = RKO cell viability reduction, dose response, CellTiter-Glo luminescence (AID 1117322); type: functional
# [10] = cytotoxicity toward HCT116 cells – cell-based, CellTiter-Glo luminescence, IC50, dose response (AID 1117332); type: functional; conditions: HCT-116
# [11] = SNU-C1 cell viability reduction, dose response, CellTiter-Glo luminescence (AID 1117323); type: functional, cell-based
# [12] = cytotoxicity toward Colo320 cells – cell-based, CellTiter-Glo luminescence, IC50, dose response (AID 1117334); type: functional; conditions: COLO 320
# [13] = cytotoxicity toward HT-29 cells – cell-based, CellTiter-Glo luminescence, IC50, dose response (AID 1117330); type: functional
# [14] = Reduced DLD-1 viability, concentration-response, CellTiter-Glo luminescence (AID 1117352); type: functional
# Melanocortin receptor 4 = Melanocortin receptor 4 (Homo sapiens, UniProt P32245); type: functional, cell-based;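 further: Cell-based assay with luminescence read-out, confirmatory dose-response testing for agonist activity of biased ligands at MC4R; human U2OS cells with tagged receptor and beta-arrestin; potency of agonists that increase receptor coupling to beta-arrestin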
# Chain of Melanocortin receptor 4 (P32245 whole entry): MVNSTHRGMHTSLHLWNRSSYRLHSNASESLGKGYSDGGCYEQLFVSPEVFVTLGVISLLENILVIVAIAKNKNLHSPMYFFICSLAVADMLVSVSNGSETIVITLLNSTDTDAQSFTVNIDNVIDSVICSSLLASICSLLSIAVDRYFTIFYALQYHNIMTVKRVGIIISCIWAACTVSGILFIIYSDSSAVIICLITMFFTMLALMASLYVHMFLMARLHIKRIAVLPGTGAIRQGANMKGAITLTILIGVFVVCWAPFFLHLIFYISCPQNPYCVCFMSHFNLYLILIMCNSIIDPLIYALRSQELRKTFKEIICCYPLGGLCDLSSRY
# [15] = activation of miR-122 Renilla sensor silencing – cell-based, Huh7 psiCHECK-miR122, Renilla luciferase, cherry-picked, dose response (AID 651956); type: functional;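 further: huh7 hepatoma cells stably carrying a psiCHECK-2 miR-122 sensor plasmid; renilla luciferase signal reporting endogenous miR-122 activity after 48 h compound exposure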
# [16] = general mammalian cell viability loss – inhibitor set, cherry-pick, set 2, cytotoxicity control for miR-122 modulator project, dose response (AID 720697); type: functional, cell-based
# [17] = general mammalian cell viability loss – activator set, cherry-pick, cytotoxicity control for miR-122 modulator project, dose response (AID 720690); type: functional, cell-based;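 further: HEK293T human cells scored for general mammalian cytotoxicity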
# Chain of Kallikrein-7 (P49862 whole entry): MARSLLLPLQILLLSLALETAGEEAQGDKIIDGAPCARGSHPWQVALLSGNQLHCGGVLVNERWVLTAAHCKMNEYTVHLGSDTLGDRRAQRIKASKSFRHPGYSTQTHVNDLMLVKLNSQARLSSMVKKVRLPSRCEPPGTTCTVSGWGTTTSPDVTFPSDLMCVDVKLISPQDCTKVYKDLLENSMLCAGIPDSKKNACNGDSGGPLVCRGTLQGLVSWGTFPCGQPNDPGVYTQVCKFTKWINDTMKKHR
compound,measurement,setting,value
Cc1ccc2nc(NC(=O)c3ccc4ncsc4c3)sc2c1,EC50,Kallikrein-7,20.8 µM (inactive)
COc1ccc(CNC(=O)c2cccc3c(-c4cccnc4)coc23)cc1OC,AC50,[1],0.9 µM (active)
same,AC50,[2],1.66 µM (active)
same,AC50,[3],2.29 µM (active)
same,IC50,Galanin receptor type 3,0.126 µM (active)
same,EC50,cells [4],> 29.9 µM (inactive)
same,IC50,[5],1.47 µM (active)
Sc1nc2ccccc2n2c(S)nnc12,IC50,cells [6],> 138 µM (inactive)
O=C1c2ccccc2C(=O)c2c(Nc3ccc(CCO)cc3)ccc(O)c21,IC50,[7],> 122 µM (inactive)
O=C(O)c1ccccc1OP(=O)(O)O [FOSFOSAL],IC50,[8],> 20 µM (inactive)
same,IC50,[9],> 20 µM (inactive)
same,IC50,[10],> 20 µM (inactive)
same,IC50,[11],> 20 µM (inactive)
same,IC50,[12],> 20 µM (inactive)
same,IC50,[13],> 20 µM (inactive)
same,IC50,[14],> 20 µM (inactive)
CCN1CCN(Cc2ccc(NC(=O)c3cc(NC(=O)c4cc5cccc(OC)c5o4)cc(OC)c3)cc2C(F)(F)F)CC1,AC50,[1],9.77 µM (active)
same,EC50,Melanocortin receptor 4,> 89.2 µM (inactive)
same,AC50,[15],12.1 µM (active)
same,AC50,[16],4.28 µM (active)
same,AC50,[17],8.76 µM (active)
